Results from patent US10934280B2, “Condensed thiophene derivatives useful as NaPi-IIb inhibitors” (Eli Lilly and Company, priority 2016, dated 2021).

Assays:
human NaPi-IIb = target: T1, human NaPi-IIb (Homo sapiens, UniProt O95436); assay: Inhibition of 33P uptake in human NaPi-IIb T-REX-CHO stable cell line; assay type: cell-based; conditions: 60 min at RT, geometric mean (SD), read-out: h NaPi-IIb rel IC50 (nM), (SD)
T1 construct: expressed in transfected cells
T1 sequence (O95436 1-690): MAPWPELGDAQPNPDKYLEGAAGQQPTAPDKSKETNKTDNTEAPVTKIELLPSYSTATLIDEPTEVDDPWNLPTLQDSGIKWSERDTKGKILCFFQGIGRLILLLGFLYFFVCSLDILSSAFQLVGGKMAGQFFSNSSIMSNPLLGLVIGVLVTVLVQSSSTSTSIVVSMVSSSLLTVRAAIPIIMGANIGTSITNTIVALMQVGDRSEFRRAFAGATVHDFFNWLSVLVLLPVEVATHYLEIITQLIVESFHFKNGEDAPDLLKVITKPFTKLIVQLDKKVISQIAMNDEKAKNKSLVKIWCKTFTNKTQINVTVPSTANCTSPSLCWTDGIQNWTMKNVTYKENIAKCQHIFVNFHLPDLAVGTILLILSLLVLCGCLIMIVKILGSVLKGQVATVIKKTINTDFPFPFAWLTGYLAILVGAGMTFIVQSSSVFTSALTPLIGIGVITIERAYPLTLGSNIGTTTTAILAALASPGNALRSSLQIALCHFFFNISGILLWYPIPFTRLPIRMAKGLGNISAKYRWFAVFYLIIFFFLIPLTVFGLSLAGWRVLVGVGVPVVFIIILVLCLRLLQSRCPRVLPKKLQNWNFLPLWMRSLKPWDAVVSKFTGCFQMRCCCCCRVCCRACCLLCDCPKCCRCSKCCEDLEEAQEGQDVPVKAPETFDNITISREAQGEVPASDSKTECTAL
Description: Inhibition of ^33P uptake is measured in human and mouse NaPi-IIb T-REX™-CHO stable cell lines. cDNA for NaPi-IIb is subcloned in plasmid SLC34A2 pcDNA5/TO (human) and SLC34A2 pcDNA5/TO (mouse) and stable cell lines are generated from clonal isolation for both human and mouse respectively. Mouse and human stable lines are maintained in continuous culture in growth media (Dulbecco's Modified Eagle Medium: Nutrient Mixture F-12 (3:1), 10% Heat Inactivated FBS, 1% penicillin/streptomycin/FUNGIEZONE® (HYCLONE™), 20 mM HEPES, 250 μg/mL hygromycin, 5 μg/mL blasticidin). […] Cell plates may remain in the incubator until ready to be assayed. […] The plate is immediately read on a Wallac MICROBETA® Trilux liquid scintillation counter and luminometer after stop solution is added with 1 minute count per well. […] Percent inhibition at all concentrations tested (final assay concentrations 100-0.005 μM) are calculated relative to 1% DMSO (minimum effect), and the effect of 100 μM of a fully efficacious NaPi-IIb inhibitor (maximum effect). IC50 values were calculated using a 4 parameter logistic curve fitting equation. The numbers presented are the geometric means with standard deviation (SD) calculated where n is the number of runs. […]

murine NaPi-IIb = target: T2, murine NaPi-IIb (Mus musculus, UniProt Q9DBP0); assay: Inhibition of 33P uptake in mouse NaPi-IIb T-REX-CHO stable cell line; assay type: cell-based; conditions: 60 min at RT, geometric mean (SD), read-out: m NaPi-IIb rel IC50 (nM), (SD)
T2 construct: expressed in transfected cells
T2 sequence (Q9DBP0 1-697): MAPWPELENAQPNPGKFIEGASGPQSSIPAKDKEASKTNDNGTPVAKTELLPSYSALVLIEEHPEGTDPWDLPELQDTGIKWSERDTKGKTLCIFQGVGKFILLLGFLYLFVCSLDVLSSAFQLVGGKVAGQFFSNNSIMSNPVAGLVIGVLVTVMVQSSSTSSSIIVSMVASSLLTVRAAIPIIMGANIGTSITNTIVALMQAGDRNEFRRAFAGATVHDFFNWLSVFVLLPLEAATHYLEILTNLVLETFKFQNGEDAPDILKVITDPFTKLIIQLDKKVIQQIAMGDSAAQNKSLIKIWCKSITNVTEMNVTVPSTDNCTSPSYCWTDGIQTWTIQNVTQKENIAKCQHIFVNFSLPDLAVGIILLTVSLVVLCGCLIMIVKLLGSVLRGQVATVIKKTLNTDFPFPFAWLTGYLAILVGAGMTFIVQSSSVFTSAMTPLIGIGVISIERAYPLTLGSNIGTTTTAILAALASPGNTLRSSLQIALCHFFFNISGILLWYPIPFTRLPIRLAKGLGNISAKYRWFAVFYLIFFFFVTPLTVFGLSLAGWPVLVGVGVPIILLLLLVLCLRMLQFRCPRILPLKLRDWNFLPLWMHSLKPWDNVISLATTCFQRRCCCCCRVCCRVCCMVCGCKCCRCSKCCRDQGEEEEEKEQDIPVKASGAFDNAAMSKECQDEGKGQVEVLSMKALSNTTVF
Description: Inhibition of ^33P uptake is measured in human and mouse NaPi-IIb T-REX™-CHO stable cell lines. cDNA for NaPi-IIb is subcloned in plasmid SLC34A2 pcDNA5/TO (human) and SLC34A2 pcDNA5/TO (mouse) and stable cell lines are generated from clonal isolation for both human and mouse respectively. Mouse and human stable lines are maintained in continuous culture in growth media (Dulbecco's Modified Eagle Medium: Nutrient Mixture F-12 (3:1), 10% Heat Inactivated FBS, 1% penicillin/streptomycin/FUNGIEZONE® (HYCLONE™), 20 mM HEPES, 250 μg/mL hygromycin, 5 μg/mL blasticidin). Cells are harvested from T225 cell culture flasks (CORNING®) using 0.25% Trypsin, and plated in 96 well CYTOSTAR-T™ scintillating microplates (Amersham Systems) at 40,000 cells/well in 100 μL of growth media plus 100 ng/mL of tetracycline. Cell plates are incubated overnight at 37° C. and 5% C02. The next day, compounds are serially diluted using one to three dilutions in 100% DMSO. Cell plates may remain in the incubator until ready to be assayed. A cell plate is removed from the incubator and media removed. Cells are washed 3 times with 200 μL assay buffer (137 mM NaCl, 5.4 mM KCl, 2.8 mM CaCl2), 1.2 mM MgSO4, and 14 mM Tris-HCl buffer, pH˜7.5), removing buffer in between washes. Serially diluted compounds in DMSO are further diluted 50 fold in assay buffer and 50 μL added to the CYTOSTAR-T™ assay plate, immediately followed by the addition of 50 μL of ^33P solution (PERKIN-ELMER®, Walton, Mass.; 0.05 μCi/50 μL). CYTOSTAR-T™ assay plates are covered with foil to protect from light and incubated for 60 min at RT. After the 60 min incubation, 100 μL of a stop solution (assay buffer+400 μM Phloretin) is added to the assay plate to stop ^33P uptake. The plate is immediately read on a Wallac MICROBETA® Trilux liquid scintillation counter and luminometer after stop solution is added with 1 minute count per well. Each plate may be processed separately and staggered in time so there may be no delay in counting after stop solution is added. Percent inhibition at all concentrations tested (final assay concentrations 100-0.005 μM) are calculated relative to 1% DMSO (minimum effect), and the effect of 100 μM of a fully efficacious NaPi-IIb inhibitor (maximum effect). IC50 values were calculated using a 4 parameter logistic curve fitting equation. The numbers presented are the geometric means with standard deviation (SD) calculated where n is the number of runs. Thus. Table 1 describes the relative IC50 values for Examples 1-28 against human NaPi-IIb and murine NaPi-IIb, respectively.

In the case of `CN1CCN(CC(=O)N2C3CCC2CN(Cc2cccc(C(=O)Nc4sc5c(c4C(=O)Nc4cc(F)c(CCc6ccc(C(=O)O)cc6)c(F)c4)CCCC5)c2)C3)CC1` [Example 26, 4-[2-[2,6-difluoro-4-[[2-[[3-[[8-[2-(4-methylpiperazin-1-yl)acetyl]-3,8-diazabicyclo[3.2.1]octan-3-yl]methyl]benzoyl]amino]-4,5,6,7-tetrahydrobenzothiophene-3-carbonyl]amino]phenyl]ethyl]benzoic Acid], the IC50 (human NaPi-IIb) was 2.4 nM and the IC50 (murine NaPi-IIb) was 15.3 nM.
